Experimental data reported in patent US12117387B2, “Biosensor, method for manufacturing the same, and analysis method using the same” (AJOU UNIVERSITY INDUSTRY-ACADEMIC COOPERATION FOUNDATION, priority 2020, dated 2024).

System: RAW264.7 cell line
Assay: Boyden chamber (transwell) macrophage migration versus chemoattractant concentration, retroreflection-based cytometry
Assay type: cell-based, rat
Details: 24 hours migration
Method: Experimental Example 3 was conducted to verify that the RAW264.7 cell line cultured in the transwell (the first chamber) coated with the retroreflective particles migrated under influence of monocytechemoattractant protein-1 (MCP-1) as the chemoattractant present in the lower chamber (second chamber), and migrated to the bottom substate of the well plate (the second chamber). In this example, DMEM (Dulbeccos Modified Eagles Medium) was used as the serum-free culture medium in the upper chamber. The culture medium in the lower chamber was composed of 1 ng/ml MCP-1, 10% Fetal Bovine Serum (FBS), and 1% Penicillin streptomycin (PS) based on DMEM (Dulbeccos Modified Eagles Medium). After the first chamber and the second chamber were combined with each other, the cell migration time was specified for 24 hours to observe the cell migration, and the cell migration was observed while culturing the cells in a cell incubator.
In Experimental Example 4, an experiment was conducted to verify whether the novel developed retroreflection-based cytometry can be used for an evaluation of cell migration dependence on the concentration of the chemoattractant as used in general cell migration analysis. The MCP-1 introduced into the well plate (the second chamber) was added into the culture medium at a concentration of each of 0, 1, 10, and 100 ng/ml. […]

## monocytechemoattractant protein-1 [MCP-1]
100 ng/ml MCP-1 compared to each of 1 and 10 ng/ml
  number of migrated cells: reduced
MCP-1 concentration increased from 0 to 10 ng/ml
  number of migrated cells: increased
